Measurements from patent US6472348B1, “Pyridone derivatives and herbicides” (Kumiai Chemical Industry Co., Ltd., priority 1996, dated 2002).

Legend:
Diaitaria ciliaris (Di) [1] = assay: Test Example 4: crop plant selectivity by upland field soil treatment (cotton), herbicidal effects; format: in vivo; settings: evaluated 21st day after application
Procedure, shortened: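 Cotton and weeds (incl. China jute, pale smartweed, slender amaranth) sown in sand-filled pots and covered with soil, then soil-treated. Grown in greenhouse; herbicidal effect and cotton phytotoxicity scored on day 21 after application against a rating standard.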

Diaitaria ciliaris (Di) [2] = assay: Test Example 5: crop plant selectivity by upland field soil treatment (wheat), herbicidal effects; format: in vivo; settings: 21st day after application
Procedure: (§1) (Test on Crop Plant Selectivity by Upland Field Soil Treatment)
In a plastic pot (surface area: 600 cm^2) filled with sand, wheat (Tr), Diaitaria ciliaris (Di), green foxtail (Se), pale smartweed (Po), slender amaranth (Am), common lambsquarters (Ch) and China jute (Ab) were sown and covered with soil. […] The plants were then cultured in a green house, and the evaluation of the herbicidal effects and phytotoxicity was conducted on the 21st day after the application in accordance with the standards as identified in Table 47. Symbol—represents “not tested”.

Diaitaria ciliaris (Di) [3] = assay: Test Example 6: crop plant selectivity by upland field soil treatment (soybean), herbicidal effects; format: in vivo; settings: 21st day after application
Procedure: as §1
(§2) In a plastic pot (surface area: 600 cm^2) filled with sand, soybean (Gl), Diaitaria ciliaris (Di), green foxtail (Se), Johnsongrass (So), pale smartweed (Po), slender amaranth (Am), common lambsquarters (Ch) and China jute (Ab) were sown and covered with soil. […] The plants were then cultured in a green house, and the evaluation of the herbicidal effects and phytotoxicity was conducted on the 21st day after the application in accordance with the standards as identified in Table 47. Symbol—represents “not tested”.

Johnsongrass (So) = assay: as above; format: in vivo; settings: 21st day after application
Procedure: as §1, §2

soybean (Gl) = assay: Test Example 10: crop plant selectivity by upland field foliage treatment (soybean), phytotoxicity; settings: dose 1.6 g ai/10a, 14th day after treatment
Procedure: (§3) (Test on Crop Plant Selectivity by Upland Field Foliage Treatment)
In a plastic pot (surface area: 600 cm^2) filled with sand, soybean (Gl), pale smartweed (Po), slender amaranth (Am), common lambsquarters (Ch) and China jute (Ab) were sown and cultured in a green house for 2 weeks. […] The plants were then cultured in a green house, and the evaluation of the herbicidal effects and phytotoxicity was conducted on the 14th day after the treatment in accordance with the standards as identified in Table 47.

cotton (Go) = assay: Test Example 8: crop plant selectivity by upland field foliage treatment (cotton), phytotoxicity; format: in vivo; settings: dose 1.6 g ai/10a, 14th day after treatment
Procedure: as §3
(§4) In a plastic pot (surface area: 600 cm^2) filled with sand, cotton (Go), pale smartweed (Po), slender amaranth (Am), common lambsquarters (Ch) and China jute (Ab) were sown and cultured in a green house for 2 weeks. […] The plants were then cultured in a green house, and the evaluation of the herbicidal effects and phytotoxicity was conducted on the 14th day after the treatment in accordance with the standards as identified in Table 47.

China jute (Ab) = assay: Test Example 8: crop plant selectivity by upland field foliage treatment (cotton), herbicidal effects; format: in vivo; settings: dose 1.6 g ai/10a, 14th day after treatment
Procedure: as §3, §4

[4] = system: common lambsquarters (Ch); assay: as above; format: in vivo; settings: dose 1.6 g ai/10a, 14th day after treatment
Procedure: as §3, §4

pale smartweed (Po) = assay: as above; format: in vivo; settings: dose 1.6 g ai/10a, 14th day after treatment
Procedure: as §3, §4

slender amaranth (Am) = assay: as above; format: in vivo; settings: dose 1.6 g ai/10a, 14th day after treatment
Procedure: as §3, §4

For `C#CC(C)Oc1cc(-c2cn(C)c(C(F)(F)F)cc2=O)c(F)cc1Cl` (racemic) [Compound 6-10], the “Herbicidal effects Di” value (Diaitaria ciliaris (Di) [1]; dose 1.6 g ai/10 a) was 5, the “Herbicidal effects Di” value (Diaitaria ciliaris (Di) [1]; dose 6.3 g ai/10 a) was 5 and the “Herbicidal effects Di” value (Diaitaria ciliaris (Di) [2]; dose 1.6 g ai/10a) was 5. The “Herbicidal effects Di” value (Diaitaria ciliaris (Di) [3]; dose 1.6 g ai/10a) was 5 and the “Herbicidal effects So” value (Johnsongrass (So); dose 1.6 g ai/10a) was 5.

For `COc1cc(-c2ccc(C(F)(F)F)n(C)c2=O)c(F)cc1Cl` [1-15], the “Herbicidal effects Di” value (Diaitaria ciliaris (Di) [1]; dose 6.3 g ai/10 a) was 5.

With `Cn1c(C(F)(F)F)ccc(-c2cc(OCCCl)c(Cl)cc2F)c1=O` [1-171] the “Phytotoxicity Gl” value (soybean (Gl)) was 2.

For `C=CC(C)Oc1cc(-c2ccc(C(F)(F)F)n(C)c2=O)c(F)cc1Cl` (centres unmarked) [Compound 1-182], the “Phytotoxicity Go” value (cotton (Go)) was 2, the “Herbicidal effects Ab” value (China jute (Ab)) was 5 and the “Herbicidal effects Ch” value [4] was 5. For the same compound, the “Herbicidal effects Po” value (pale smartweed (Po)) was 5 and the “Herbicidal effects Am” value (slender amaranth (Am)) was 5.

In the case of `CCON=Cc1cc(-c2ccc(C(F)(F)F)n(C)c2=O)c(F)cc1Cl` [Compound 1-187], the “Phytotoxicity Go” value (cotton (Go)) is reported as 2, the “Herbicidal effects Ab” value (China jute (Ab)) is reported as 5 and the “Herbicidal effects Ch” value [4] is reported as 5. The “Herbicidal effects Po” value (pale smartweed (Po)) was 5, the “Herbicidal effects Am” value (slender amaranth (Am)) was 5 and the “Phytotoxicity Gl” value (soybean (Gl)) was 2.

In the case of `CSCOc1cc(-c2ccc(C(F)(F)F)n(C)c2=O)c(F)cc1Cl` [Compound 1-208], the “Phytotoxicity Gl” value (soybean (Gl)) is reported as 2.

With `CCCc1cc2c(-c3ccc(C(F)(F)F)n(C)c3=O)c(F)cc(Cl)c2o1` [Compound 4-3] the “Phytotoxicity Gl” value (soybean (Gl)) was 2.

For `CCc1cc2c(Cl)cc(F)c(-c3ccc(C(F)(F)F)n(C)c3=O)c2o1` [Compound 5-2], the “Phytotoxicity Gl” value (soybean (Gl)) was 2.

In the case of `Cn1c(C(F)(F)F)ccc(-c2cc(C#N)c(Cl)cc2F)c1=O` [Compound No. 1-119, 3-(4-chloro-5-cyano-2-fluorophenyl)-1-methyl-6-trifluoromethyl-2(1H)-pyridone], the “Phytotoxicity Gl” value (soybean (Gl)) is reported as 2 and the melting point is reported as 180 to 181 °C.

For `CCCC(=O)c1cc(-c2ccc(C(F)(F)F)n(C)c2=O)c(F)cc1Cl` [Compound No. 1-194, 3-[4-chloro-2-fluoro-5-(1-oxobutyl)phenyl]-1-methyl-6-trifluoromethyl-2(1H)-pyridone], the “Phytotoxicity Go” value (cotton (Go)) was 2, the “Herbicidal effects Ab” value (China jute (Ab)) was 5 and the “Herbicidal effects Ch” value [4] was 5. The “Herbicidal effects Po” value (pale smartweed (Po)) was 5 and the “Herbicidal effects Am” value (slender amaranth (Am)) was 5.

In the case of `C#CCN1C(=O)COc2cc(F)c(-c3ccc(C(F)(F)F)n(C)c3=O)cc21` [Compound No. 2-1, 3-[7-fluoro-2,3-dihydro-4-(2-propynyl)-1,4-benzoxazin-3-on-6-yl]-1-methyl-6-trifluoromethyl-2(1H)-pyridone], the “Herbicidal effects Di” value (Diaitaria ciliaris (Di) [1]; dose 1.6 g ai/10 a) is reported as 5, the “Herbicidal effects Di” value (Diaitaria ciliaris (Di) [2]; dose 1.6 g ai/10a) is reported as 5 and the “Herbicidal effects Di” value (Diaitaria ciliaris (Di) [3]; dose 1.6 g ai/10a) is reported as 5. The “Herbicidal effects Di” value (Diaitaria ciliaris (Di) [3]; dose 6.3 g ai/10a) was 5, the “Herbicidal effects So” value (Johnsongrass (So); dose 1.6 g ai/10a) was 5 and the “Herbicidal effects So” value (Johnsongrass (So); dose 6.3 g ai/10a) was 5.

`C#CCn1c(=O)sc2cc(F)c(-c3ccc(C(F)(F)F)n(C)c3=O)cc21` [Compound No. 3-1, 3-[6-fluoro-3-(2-propynyl)-benzothiazolin-2-on-5-yl]-1-methyl-6-trifluoromethyl-2(1H)-pyridone] gave a melting point of 150 to 151 °C.

In the case of `COCc1cc2c(-c3ccc(C(F)(F)F)n(C)c3=O)c(F)cc(Cl)c2o1` [Compound No. 4-4, 3-(7-chloro-5-fluoro-2-methoxymethylbenzofuran-4-yl)-1-methyl-6-trifluoromethyl-2-(1H)-pyridone], the melting point is reported as 136 to 137 °C.

`Cn1c(C(F)(F)F)ccc(-c2c(F)cc(Cl)c3oc(CO)cc23)c1=O` [Compound No. 4-5, 3-(7-chloro-5-fluoro-2-hydroxymethylbenzofuran-4-yl)-1-methyl-6-trifluoromethyl-2-(1H)-pyridone] showed a melting point of 145 to 147 °C.

For `Cn1c(C(F)(F)F)ccc(-c2c(F)cc(Cl)c3occc23)c1=O` [Compound No. 4-28, 3-(7-chloro-5-fluorobenzofuran-4-yl)-1-methyl-6-trifluoromethyl-2-(1H)-pyridone], the melting point was 178 to 179 °C.

With `Cn1cc(-c2cc(Oc3ccccc3)c(Cl)cc2F)c(=O)cc1C(F)(F)F` [Compound No. 6-19, 5-(4-chloro-2-fluoro-5-phenoxyphenyl)-1-methyl-2-trifluoromethyl-4(1H)-pyridone] the “Herbicidal effects Di” value (Diaitaria ciliaris (Di) [1]; dose 1.6 g ai/10 a) was 5, the “Herbicidal effects Di” value (Diaitaria ciliaris (Di) [1]; dose 6.3 g ai/10 a) was 5 and the “Herbicidal effects Di” value (Diaitaria ciliaris (Di) [2]; dose 1.6 g ai/10a) was 5. For the same compound, the “Herbicidal effects Di” value (Diaitaria ciliaris (Di) [2]; dose 6.3 g ai/10a) was 5, the “Herbicidal effects Di” value (Diaitaria ciliaris (Di) [3]; dose 1.6 g ai/10a) was 5 and the “Herbicidal effects Di” value (Diaitaria ciliaris (Di) [3]; dose 6.3 g ai/10a) was 5. For the same compound, the “Herbicidal effects So” value (Johnsongrass (So); dose 1.6 g ai/10a) was 4, the “Herbicidal effects So” value (Johnsongrass (So); dose 6.3 g ai/10a) was 5 and the melting point was 159 to 161 °C.
